Numbers after ± are expanded uncertainties.
Details: 297.9 K, Liquid mixture 1, Pendant drop shape

**Q.** Which results are given for `O=C=O` [carbon dioxide] + O?
**A.** interfacial tension (7020 kPa): 31.9 ± 0.7 mN/m; interfacial tension (8020 kPa): 31.9 ± 0.7 mN/m; interfacial tension (10010 kPa): 31.8 ± 0.7 mN/m; interfacial tension (14990 kPa): 30.6 ± 0.7 mN/m; interfacial tension (19990 kPa): 30 ± 0.7 mN/m

Source: the NIST ThermoML archive (doi:10.1021/je100198g)
